# Source: patent US6479454B1, “Antimicrobial compositions and methods containing hydrogen peroxide and octyl amine oxide” (Ecolab Inc., priority 2000, dated 2002)
# Experiments:
# Pseudomonas aeruginosa = experiment: Minimal Bactericidal Concentration (MBC), Ecolab S.O.P. Method MS009 (A.O.A.C. Method 960.09); format: cell-based
# Procedure: The term Minimal Bactericidal Concentration is used in the present invention to mean a 5 log reduction in microbe count.
# An experiment was conducted to determine the Minimal Bactericidal Concentration (MBC) of octyldimethylamine oxide alone, hydrogen peroxide alone and two mixtures of octyldimethylamine oxide with hydrogen peroxide against Pseudomonas aeruginosa. Experiments were conducted using standard bacteriological techniques, specifically Ecolab Microbiological Services S.O.P. Method MS009 (reference to A.O.A.C. Method 960.09). […] The 50%/50% relative composition of amine oxide:hydrogen peroxide has a pH of 7.4 and an oxidation potential of 250 mV when diluted to 1.7% total oxidizer.
# Salmonella javiana = experiment: Antimicrobial activity (log reduction) on a tomato surface; format: cell-based
# Procedure: A second experiment was conducted to determine the synergistic effects of mixing an amine oxide, peracetic acid and hydrogen peroxide. Combinations of peracetic acid and hydrogen peroxide were measured in the presence and absence of a tetradecyl-dimethylamine oxide for antimicrobial activity against Salmonella javiana. Testing was performed on a tomato surface.
smiles,measurement,setting,value
"OO [0/100, hydrogen peroxide]",MBC ppm peroxide,"Pseudomonas aeruginosa; MBC = 5 log reduction in microbe count, expressed as hydrogen peroxide concentration",">2,000 ppm"
"CCCCCCCC[N+](C)(C)[O-] [100/0, octyldimethylamine oxide]",concentration required to obtain MBC,Pseudomonas aeruginosa; MBC = 5 log reduction,greater than 2000 parts per million
same,MBC,"Pseudomonas aeruginosa; Pseudomonas aeruginosa, MBC = 5 log reduction in microbe count, expressed as octyldimethylamine oxide concentration, read-out: MBC ppm amine oxide",> 2000 µg/mL
"CCCCCCCCCCCCCC[N+](C)(C)[O-] [Amine Oxide Alone, tetradecyl-dimethylamine oxide]",Log Reduction (S. Javiana),Salmonella javiana; ppm of each component as given in the table row,<0.2
same,antimicrobial activity against S. javiana (in words),Salmonella javiana; text summary of Table II,fairly ineffective
